# According to PubChem BioAssay (NCI):
#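 1) Cells in 96-well plates. 2) Compound, 48 h, 5 concentrations. 3) Linear interpolation between surrounding doses. 4) Unreached endpoint = highest concentration. GI50 is the concentration that inhibits growth by half. TGI: concentration producing complete growth inhibition.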
# What was measured:
# Assay in all cases: NCI-60 cell line screen, 48 h
# [1] = tested on: OVCAR-8 ovarian
# [2] = tested on: UACC-257 melanoma
# [3] = tested on: MDA-MB-435
# [4] = tested on: 786-0 renal
# [5] = tested on: A498 renal
# [6] = tested on: HL-60(TB) leukemia
# [7] = tested on: SR leukemia
# [8] = tested on: M14 melanoma
# [9] = tested on: CAKI-1 renal
# [10] = tested on: EKVX NSCLC
# [11] = tested on: RXF 393 renal
# [12] = tested on: SK-MEL-28 melanoma
# [13] = tested on: CCRF-CEM leukemia
# [14] = tested on: NCI-H23 lung
# [15] = tested on: NCI-H226 lung
# [16] = tested on: A549 NSCLC
# [17] = tested on: ACHN renal
# [18] = tested on: PC-3 prostate
# [19] = tested on: NCI-H522 lung
# [20] = tested on: SW-620 colon
# [21] = tested on: U251 CNS
# [22] = tested on: T-47D breast
# [23] = tested on: OVCAR-5 ovarian
# [24] = tested on: DU-145 prostate
# [25] = tested on: NCI-H460 lung
# [26] = tested on: SK-MEL-5 melanoma
# [27] = tested on: SK-OV-3 ovarian
# [28] = tested on: COLO 205 colon
# [29] = tested on: HOP-92 NSCLC
# [30] = tested on: SNB-19 CNS
# [31] = tested on: SF-295 CNS
# [32] = tested on: IGROV1 ovarian
# [33] = tested on: HS 578T breast
# [34] = tested on: SNB-75 CNS
# [35] = tested on: RPMI-8226 leukemia
# [36] = tested on: NCI/ADR-RES ovarian
# [37] = tested on: UACC-62 melanoma
# [38] = tested on: SF-268 CNS
# [39] = tested on: SK-MEL-2 melanoma
# [40] = tested on: LOX IMVI melanoma
# [41] = tested on: BT-549 breast
# [42] = tested on: UO-31 renal
# [43] = tested on: MDA-MB-231 breast
# [44] = tested on: HCT-116 colon
# [45] = tested on: MOLT-4 leukemia
# [46] = tested on: HCT-15 colon
# [47] = tested on: HOP-62 NSCLC
# [48] = tested on: HCC-2998 colon
# [49] = tested on: HT29 colon
# [50] = tested on: MALME-3M melanoma
# [51] = tested on: K-562 leukemia
# [52] = tested on: OVCAR-4 ovarian
# [53] = tested on: SN12C renal
# [54] = tested on: MCF7 breast
# [55] = tested on: KM12 colon
# [56] = tested on: TK-10 renal
# [57] = tested on: SF-539 CNS
smiles,measurement,setting,value
O=C(NNc1nc2cc(F)c(F)cc2n2c(CN3CC4CNCC4C3)ccc12)c1cnccn1 (centres undefined),GI50,[1],0.547 µM
same,TGI,[1],7.83 µM
same,GI50,[2],2.09 µM
same,TGI,[2],7.13 µM
same,GI50,[3],2.53 µM
same,TGI,[3],16.3 µM
same,GI50,[4],0.609 µM
same,TGI,[4],12.4 µM
same,GI50,[5],0.522 µM
same,TGI,[5],4.22 µM
same,GI50,[6],1.15 µM
same,TGI,[6],4.36 µM
same,GI50,[7],0.481 µM
same,TGI,[7],20.5 µM
same,GI50,[8],0.611 µM
same,TGI,[8],12.3 µM
same,GI50,[9],0.415 µM
same,TGI,[9],9.69 µM
same,GI50,[10],0.732 µM
same,TGI,[10],13.8 µM
same,GI50,[11],1.27 µM
same,TGI,[11],9.46 µM
same,GI50,[12],2.11 µM
same,TGI,[12],14.5 µM
same,GI50,[13],0.706 µM
same,TGI,[13],27.5 µM
same,GI50,[14],2.47 µM
same,TGI,[14],14.3 µM
same,GI50,[15],1.23 µM
same,TGI,[15],14.5 µM
same,GI50,[16],0.851 µM
same,TGI,[16],10.6 µM
same,GI50,[17],0.429 µM
same,TGI,[17],7.82 µM
same,GI50,[18],1.25 µM
same,TGI,[18],16.1 µM
same,GI50,[19],2.34 µM
same,TGI,[19],6.26 µM
same,GI50,[20],1.17 µM
same,TGI,[20],15.2 µM
same,GI50,[21],0.741 µM
same,TGI,[21],11.2 µM
same,GI50,[22],3.3 µM
same,TGI,[22],22.9 µM
same,GI50,[23],1.75 µM
same,TGI,[23],16.8 µM
same,GI50,[24],1.3 µM
same,TGI,[24],11.8 µM
same,GI50,[25],0.463 µM
same,TGI,[25],4.72 µM
same,GI50,[26],1.65 µM
same,TGI,[26],4.34 µM
same,GI50,[27],0.811 µM
same,TGI,[27],9.06 µM
same,GI50,[28],0.874 µM
same,TGI,[28],13.8 µM
same,GI50,[29],3.01 µM
same,TGI,[29],17.4 µM
same,GI50,[30],2.2 µM
same,TGI,[30],18.8 µM
same,GI50,[31],0.44 µM
same,TGI,[31],11.2 µM
same,GI50,[32],0.904 µM
same,TGI,[32],10.8 µM
same,GI50,[33],3.33 µM
same,TGI,[33],20.6 µM
same,GI50,[34],2.16 µM
same,TGI,[34],14.1 µM
same,GI50,[35],1.3 µM
same,TGI,[35],11.8 µM
same,GI50,[36],2.6 µM
same,TGI,[36],14.3 µM
same,GI50,[37],1.19 µM
same,TGI,[37],6.28 µM
same,GI50,[38],0.962 µM
same,TGI,[38],10.8 µM
same,GI50,[39],1.89 µM
same,TGI,[39],11.4 µM
same,GI50,[40],0.608 µM
same,TGI,[40],6.7 µM
same,GI50,[41],2.42 µM
same,TGI,[41],13.8 µM
same,GI50,[42],0.356 µM
same,TGI,[42],3.24 µM
same,GI50,[43],3.65 µM
same,TGI,[43],20.6 µM
same,GI50,[44],0.588 µM
same,TGI,[44],15.8 µM
same,GI50,[45],0.764 µM
same,TGI,[45],13.6 µM
same,GI50,[46],0.363 µM
same,TGI,[46],16.2 µM
same,GI50,[47],0.459 µM
same,TGI,[47],5.23 µM
same,GI50,[48],2.74 µM
same,TGI,[48],16.5 µM
same,GI50,[49],0.726 µM
same,TGI,[49],15.2 µM
same,GI50,[50],1.75 µM
same,TGI,[50],9.7 µM
same,GI50,[51],0.785 µM
same,TGI,[51],> 100 µM
same,GI50,[52],0.995 µM
same,TGI,[52],20.6 µM
same,GI50,[53],2.06 µM
same,TGI,[53],11.4 µM
same,GI50,[54],1.41 µM
same,TGI,[54],12.3 µM
same,GI50,[55],0.74 µM
same,TGI,[55],12.7 µM
same,GI50,[56],0.455 µM
same,TGI,[56],17 µM
same,GI50,[57],1.07 µM
same,TGI,[57],4.42 µM
